# From patent publication US20060105061A1, “Galenical composition” (priority 2004, published 2006)
# Read-outs that look alike come from different tables or passages of the source.
# What was measured:
# [1] = system: normal hepatocytes; assay: Metal-induced lipid peroxidation (MDA) in normal cultured hepatocytes; type: cell-based, Wistar rats; conditions: for IC50: Rattus norvegicus, Hepatocyte, normal hepatocytes, 100 μM, read-out: IC50 of lipid peroxidation inhibition
# Source text: (§1) Isolation and culture of hepatocytes: Male Wistar rats weighing 180 to 210 g were fed with standard chow and water ad libitum. Hepatocytes were isolated by collagenase perfusion method as described by Wolkoff et al. (J Clin Invest 1987; 79: 1259-1268). Briefly, the liver was perfused with collagenase type IV (Sigma Chemical, St. Louis, Mo., USA) and isolated hepatocytes were suspended in culture medium consisting of Waymouth's 752/1 (Gibco, Grand Island, N.Y., USA) containing 5% heat-inactivated fetal bovine serum, 2.5 mM CaCl2, 5 μg/mL bovine insulin (Sigma), 100 U/mL penicillin and 0.1 mg/mL streptomycin. The isolated cells were further fractionated on Percoll density gradients to obtain a viability higher than 98%, as ascertained by trypan blue. Approximately 1.5×10^6 cells in 3 mL or approximately 5.0×10^6 cells in 10 mL in individual 60- or 100-mm diameter Lux culture dishes were placed in an incubator in an atmosphere of […] at 37° C., and then separately cultured. After a 9 hr incubation, the monolayer of hepatocytes was cultured for an additional 12 hr in the medium containing 1.0 mM α-linolenic acid (LNA)-bovine serum albumin (BSA). Seventy percent or more of added LNA was adsorbed by cultured cells after incubation.
# (§2) After incubation for 6 hr, the medium was separated. Malonyldialdehyde (MDA) in the medium was assessed by a slight modification of the Uchiyama and Mihara method (Anal Biochem 1978; 86: 271-278). Briefly, to 0.1 ml of the medium in a 12 ml glass tube, 3 ml of 1% […] and 1 ml of 0.67% thiobarbituric acid were added and heated at 100° C. for 45 min. After cooling in ice water, 4 ml of n-butanol was added and the resulting mixture was shaken and then centrifuged to separate the butanol layer. The fluorescence intensity in the butanol layer was assayed at the excitation and emission wavelengths of 515 and 553 nm, respectively. The auto-oxidation products of fatty acid in the medium were within 0.3 nmol and were used as blank. Dimethyl sulfoxide (20 μl) was diluted in 2000 μl of the culture medium, including control cultures of metal ions only in the absence of the test compounds and the final concentration of 1% dimethyl sulfoxide had no measurable effect on lipid peroxidation in basal cultured hepatocytes.
# [2] = system: LNA-loaded hepatocytes; assay: Metal-induced lipid peroxidation (MDA) in LNA-loaded hepatocytes; type: cell-based, Wistar rats; conditions: Rattus norvegicus, Hepatocyte, LNA-loaded cells, 100 μM, read-out: IC50 of lipid peroxidation inhibition
# Source text: as §1
# as §2, with “Dimethyl sulfoxide (20 μl) was diluted in 2000 μl of the culture medium, including control cultures of metal ions only in the absence of the test compounds and the final concentration of 1% dimethyl sulfoxide had no measurable effect on lipid peroxidation in basal cultured hepatocytes.” left out
# [3] = system: lysosomal fractions; assay: Lysosome fragility test: LDH leakage and β-galactosidase release with metal ions; type: biochemical, Wistar rats; conditions: YHK at the higher concentration, p<0.05
# Protocol: (§3) Preparation of lysosomal fractions: After homogenizing in 9 volumes of 0.3 M sucrose, the liver was centrifuged at 450×g for 10 min. The supernatants were again centrifuged at 3500×g for 10 min, and the lysosome-containing supernatant was centrifuged at 10000×g for 10 min. The pellets were washed and centrifuged at 10000×g for 10 min, and resuspended in the sucrose buffer to a protein concentration of 15 mg/ml.
# Lysosome fragility test: The fraction was incubated with the test compound and each of metal ions and β-galactosidase activity was measured in accordance with the method of Olsson et al. (Anal Cell Pathol 1990; 2: 179-188), using 4-methylumbelliferyl-β-galactosidase as a substrate. The results were expressed as percentage of total β-galactosidase released. Lactate dehydrogenase leakage was also measured in the culture medium in accordance with the method of Hillaire et al. (Hepatology 1995; 22: 82-87).
# [4] = system: lysosomal fractions; assay: Oxidative damage tests of lysosomes: enzyme release with AAPH or AMVN radical generators; type: biochemical, Wistar rats; conditions: 10^−4M, ± SE
# Protocol: as §3
# Oxidative damage tests of lysosomes: Assays for the release of acid phosphatase and β-N-acetylglucosaminidase from lysosomes were carried out by incubating lysosomal suspensions in the presence of test compounds. […] For this experiment, lysosomal suspensions were preincubated in the presence of 1 mM of the test compounds for 30 min and centrifuged at 12000×g for 10 min. Then the pellets were washed in 0.15 M KCl-5 mM Tris buffer (pH 7.4), centrifuged and re-suspended in 0.1M acetate buffer (pH 5.5).
structure (smiles),measurement,setting,value
"COc1cc(C2Oc3cc([C@H]4Oc5cc(O)cc(O)c5C(=O)[C@@H]4O)ccc3OC2CO)ccc1O (stereo partly drawn) [Sylibin, sylibin]",IC50,[1]; CuSO4-induced,7.3 ± 0.3 µM
same,IC50,[1]; FeSO4-induced,18.9 ± 3.2 µM
same,IC50,[1]; VCl3-induced,10.8 ± 1.2 µM
same,MDA generation in the medium,"[1]; metal catalysts, up to 6 hr, p<0.05",significantly decreased
same,IC50,[2]; CuSO4-induced,16.8 ± 1.5 µM
same,IC50,[2]; FeSO4-induced,79.9 ± 9.2 µM
same,IC50,[2]; VCl3-induced,17.3 ± 1.2 µM
same,β-galactosidase release from lysosomes,[3],significantly decreased
same,"Acid phosphatase release, enzyme activity",[4]; AAPH-induced release,51.9 ± 5.6 % of control
same,"β-N-acetylglucosaminidase release, enzyme activity",[4]; AAPH-induced release,54.6 ± 4.7 % of control
same,"Acid phosphatase release, enzyme activity",[4]; AMVN-induced release,83.9 ± 10.4 % of control
same,"β-N-acetylglucosaminidase release, enzyme activity",[4]; AMVN-induced release,77.3 ± 7.4 % of control
